Measurements: PMC6571673, “Cytostatic and Cytotoxic Natural Products against Cancer Cell Models” (Molecules, 2019)

Tests used:
UoC-B1 = assay: CTG viability assay (CellTiter-Glo, 72 h); format: cell-based; conditions: Homo sapiens, mean ± SEM of triplicates
Procedure: (§1) All human cell lines were incubated at 37 °C in a 5% CO2 atmosphere and maintained under sterile conditions. Cells were tested for Mycoplasma (Lonza, Alpharetta, GA, USA) using the manufacturer’s conditions prior to experiments. Cell lines were purchased from American Type Culture Collection (ATCC, Manassas, VA, USA) or Leibniz-Institute Deutsche Sammlung von Mikroorganismen und Zellkulturen GmbH (DSMZ, Braunschweig, Germany) and cultured without antibiotics unless stated. Leukemia cells were cultured in RPMI and supplemented with 10% fetal bovine serum (FBS, Hyclone, Logan, UT, USA). SUP-B15, and KOPN-8 lines were cultured in RPMI supplemented with 10% FBS (Hyclone), 1% GlutaMAX™, 1% Pen/Step, and 0.1% β-mercaptoethanol. BJ cells were cultured in EMEM media supplemented with 10% FBS (Hyclone). Breast cancer cells (MDA-MB-231 & SUM149) were cultured in DMEM and Ham’s F12 respectively, supplemented with 10% FBS, 1% GlutaMAX™, 1% Pen/Step, and 2 µM cortisol/1 µg/mL insulin for SUM149. Both cells were grown to 80% confluence densities as recommended by ATCC. PBMCs were supplemented with concanavalin-A (5 μg/mL) and IL-2 (50 U/ml). To test general cytotoxicity, the following cell numbers were used for 384 well plates: KOPN-8 (ACC 552, infant human B cell precursor acute lymphoblastic leukemia with MLL-MLLt1/ENL fusion, 1000 cells/well), SUP-B15 (ACC389, human B cell precursor acute lymphoblastic leukemia of pediatric second relapse carrying the ALL-variant (m-bcr) of BCR-ABL1 fusion gene (e1-a2), 1600 cells/well), NALM-06 (DSMZ ACC128, non-T/non-B ALL at relapse with P15INK4B and P16INK4A deletions, 1200 cells/well), UoC-B1 (pediatric BCP-ALL at second relapse with TCF3/E2A-HFL fusion, 1000 cells/well), BJ (CRL-2522, normal human foreskin fibroblast cells, 400 cells/well) and PBMCs (periphery blood monocyte cells from healthy donors, IBC#BDC046, 10,000 cells/well).
(§2) Cytotoxicity evaluation was performed using the CellTiter-Glo Luminescent Cell Viability Assay kit (G7570, Promega, Madison, WI, USA), according to the manufacturer’s instructions. Briefly, the cell concentrations used were experimentally determined to ensure logarithmic growth during the 72-h duration of the experiment, and avoid adverse effects on cell growth by DMSO exposure. 1 × 10^3–4.8 × 10^3 or 4 × 10^2–1.2 × 10^3 cells/well were seeded in 96 or 384-well white flat-bottomed plates (3610 or 8804BC, Corning, Corning, NY, USA) in 100 µL or 30 µL/well, respectively. The plates were incubated at 37 °C in 5% CO2 for 24 h before drugging. Test compounds (10 mM in DMSO) in nine 3-fold serial dilutions were dispensed via pintool (Biomek liquid handler, Beckman, Indianapolis, USA) to assay plates. The final concentration of DMSO was 0.3% (v/v) in each well. The positive controls included staurosporine (10 μM), and gambogic acid (10 μM). The plates were incubated for 72 h at 37 °C in 5% CO2, then quenched with CellTiter-Glo® (Promega, Madison, WI, USA, 50 µL/96 or 30 µL/384), centrifuged at 1000 rpm for 1 min and incubated at RT for 20 min. Luminescence was recorded with a plate reader (Envision, Perkin Elmer, Waltham, MA, USA). The mean luminescence of each experimental treatment group was normalized as a percentage of the mean intensity of untreated controls. EC50 values were calculated by Pipeline Pilot software (Accelrys, Enterprise Platform, San Diego, CA, USA).

PBMC = assay: CTG viability assay (CellTiter-Glo, 72 h); format: cell-based; conditions: Homo sapiens, non-cancerous cells
Procedure: as §1, §2

NALM-06 = assay: CTG viability assay (CellTiter-Glo, 72 h); format: cell-based; conditions: Homo sapiens, mean ± SEM of triplicates
Procedure: as §1, §2

KOPN-8 [1] = assay: CTG viability assay (CellTiter-Glo, 72 h); format: cell-based; conditions: Homo sapiens, mean ± SEM of triplicates
Procedure: as §1, §2

[2] = test system: de novo protein synthesis in MDA-MB-231; assay: EZClick in-cell-click de novo protein synthesis assay; format: cell-based, human; conditions: MDA-MB-231, 2 h exposure time
From the text: Protein synthesis is essential in cell growth, proliferation, signaling, differentiation, and death. […] The assay includes a robust chemical method based on an alkyne containing o-propargyl-puromycin probe, which stops translation by forming covalent conjugates with nascent polypeptide chains. Truncated polypeptides are rapidly turned over by the proteasome and can be detected based on the subsequent click reaction with a fluorescent azide. To test whether these compounds (4–14) induced de novo protein synthesis inhibition, compounds were tested for a 2 h exposure time, under the same conditions as the known protein synthesis inhibitor cycloheximide (CHX) in MDA-MB-231 cell model following an in-cell-click de novo protein synthesis assay.
Biovision’s EZClick™ protein synthesis monitoring assay kit (EZClick™ Global Protein Synthesis Assay Kit, Catalog # K715-100, Milpitas, CA, USA) was used according to manufacturer’s protocol. The assay was conducted in 8-well chambered coverslips (ibidi GmbH µ-slide # 80826, Martinsried, Germany). Cells were plated at 2 × 10^4 per well and incubated at 37 °C for 12 h. Then, the cells were treated with compounds for 1.5 h and processed and stained according to protocol (representative images shown in Figure 4). Protein synthesis activity is shown in red, DNA staining is shown in green. Cycloheximide (CHX) was used as a positive control and DMSO as the negative control. Images shown were taken with a Marianas CSU-X spinning disk confocal imaging system (3i, Denver, CO, USA) configured with a Zeiss Axio Observer microscope (Carl Zeiss Inc., Thornwood, NY, USA) with diode lasers, at 63× magnification and resolution of 512 × 512 pixels (3i). For each field of view, an image stack consisting of 20 optical sections were taken at 63× magnification. The total intensity of red and green staining was quantified for the entire image stack. Six fields of view were analyzed per condition. Images shown represent a single optical section for each field of view. For each stack, the red intensity (protein synthesis) was adjusted to the green intensity (DNA content) in each image. The numbers from six images were used to calculate the average and standard deviation for each condition. Numbers were normalized to the negative control value arbitrarily set to one. The Slide viewer 6 software package was used for rendering and analysis of the images.

BJ = assay: CTG viability assay (CellTiter-Glo, 72 h); format: cell-based, human; conditions: Homo sapiens, BJ; CellTiter-Glo, 72 h; non-cancerous cells
Procedure: as §1, §2

SUP-B15 [3] = assay: CTG viability assay (CellTiter-Glo, 72 h); format: cell-based, human; conditions: Homo sapiens
Procedure: as §1, §2

KOPN-8 [4] = assay: Cell cycle analysis (PI DNA content, flow cytometry); format: cell-based, human; conditions: KOPN-8, 24 h; silvestrol 5 µM, 8 5 µM, 9 10 µM, 10 5 µM, 12 10 µM, 13 10 µM
Procedure: (§3) The samples were probed with AnnexinV-FITC (Roche/Boehringer Mannheim, Indianapolis, IN, USA) according to the manufacturer’s instructions. KOPN-8 or SUB-P15 cells were plated (1.00 × 10^6 cells/plate) and incubated for 12 h and incubated at 37 °C. Then, cells were treated with compounds or controls for 24 h. Cells were stained with AnnexinV-FITC, PI and the staining profiles were determined with FACScan and Cell-Quest software. For cellular DNA content, the same cell treatment as above was performed. Then, cells were fixed in cold 75% ethanol, treated with RNase and then stained with PI solution (50 µg/mL). Cell cycle distribution was analyzed with the FACSCalibur analyzer (BD Biosciences, Franklin Lakes, NJ, USA) and Cell-Quest software. The percentage of DNA content at different phases of the cell cycle was analyzed with ModFit-software (version 5.0, Verity Software House, Topsham, ME, USA).

SUP-B15 [5] = assay: Annexin V/PI apoptosis flow cytometry assay; format: cell-based, human; conditions: SUP-B15, 24 h; for late apoptotic state or cell death: 10 µM; for live cells (Annexin-, PI-): 8 5 µM, 9 10 µM, 10 5 µM, 12 10 µM, 13 10 µM
Procedure: as §3

KOPN-8 [6] = assay: Annexin V/PI apoptosis flow cytometry assay; format: cell-based, human; conditions: KOPN-8, 24 h; for late apoptotic state or cell death: 10 µM; for live cells (Annexin-, PI-): 8 5 µM, 9 10 µM, 10 5 µM, 12 10 µM, 13 10 µM
Procedure: as §3

SUP-B15 [7] = assay: Cell cycle analysis (PI DNA content, flow cytometry); format: cell-based, human; conditions: SUP-B15, 24 h
Procedure: as §3

SUM149 = assay: Propidium iodide (PI) assay, 48 h; conditions: SUM149, 48 h
Procedure: (§4) The first step was to evaluate if the compounds display cytotoxicity against the adherent cells. Propidium iodide (PI) assay was performed for the drug resistant solid tumor cellular models (triple negative breast cancer models: SUM149 and MDA-MB-231) for 48 h (Figure 5) [30, 31].

MDA-MB-231 = assay: Propidium iodide (PI) assay, 48 h; format: cell-based, human; conditions: MDA-MB-231, 48 h
Procedure: as §4

[8] = SUP-B15, 72 h, mean ± SEM of triplicates
[9] = SUP-B15, mean ± SEM of triplicates

| Compound | EC50 (UoC-B1) [µM] | EC50 (PBMC) [µM] | EC50 (NALM-06) [µM] | EC50 (KOPN-8 [1]) [µM] | de novo protein synthesis inhibition [2] | EC50 (BJ) [µM] | EC50 (SUP-B15 [3]; [8]) [µM] | cell cycle effect (KOPN-8 [4]) | late apoptotic state or cell death (SUP-B15 [5]) | late apoptotic state or cell death (KOPN-8 [6]) | EC50 (SUP-B15 [3]; [9]) [µM] | reduction in the percentage of cells in the S phase (SUP-B15 [7]; 10 µM) | cell cycle effect (SUP-B15 [7]; silvestrol 5 µM, 8 5 µM, 9 10 µM, 10 5 µM, 12 10 µM, 13 10 µM) | live cells (Annexin-, PI-) (SUP-B15 [5]) | live cells (Annexin-, PI-) (KOPN-8 [6]) | activity in PI assay (SUM149) | activity in PI assay (MDA-MB-231) | increase in the percentage of cells in S phase (SUP-B15 [7]; 5 µM) | reduction in the percentage of cells in G2/M phase (SUP-B15 [7]; 5 µM) |
| --- | --- | --- | --- | --- | --- | --- | --- | --- | --- | --- | --- | --- | --- | --- | --- | --- | --- | --- | --- |
| CC(C)CC[C@@H](O)[C@](C)(O)[C@H]1CC[C@@]2(O)C3=CC(=O)[C@]4(O)C[C@@H](O)[C@@H](O)C[C@]4(C)[C@H]3[C@H](O)C[C@]12C [Compound 13, muristerone A] | > 21.6 | > 43.3 | 0.518 ± 0.15 | > 43.3 | little to no protein synthesis inhibition | > 43.3 | 9.5 ± 2.1 | minimal effect on the cell cycle | did not capture significant increase of late apoptotic state or cell death | did not capture significant increase of late apoptotic state or cell death | – | – | – | – | – | – | – | – | – |
| C[C@H]([C@H](O)CCC(C)(C)O)[C@H]1CC[C@@]2(O)C3=CC(=O)[C@@H]4C[C@@H](O)[C@@H](O)C[C@]4(C)[C@H]3CC[C@]12C [Compound 12, ecdysone] | > 21.6 | > 43.3 | > 43.3 | > 43.3 | little to no protein synthesis inhibition | > 43.3 | – | minimal effect on the cell cycle | did not capture significant increase of late apoptotic state or cell death | did not capture significant increase of late apoptotic state or cell death | 20.1 ± 3.2 | ~ 10% | arrested G2/M | small decrease in live cells | small decrease in live cells | – | – | – | – |
| COc1cc2c(cc1O)[C@H]1Cc3ccc(OC)c(O)c3CN1CC2 [Compound 5] | 17.3 ± 3.8 | > 43.3 | 8.38 ± 1.8 | 32 ± 7.6 | – | > 43.3 | – | – | – | – | 29 ± 3.7 | – | – | – | – | – | – | – | – |
| CC(C)(O)CC[C@@H](O)[C@](C)(O)[C@H]1CC[C@@]2(O)C3=CC(=O)[C@@H]4C[C@@H](O)[C@@H](O)C[C@]4(C)[C@H]3CC[C@]12C [Compound 11] | > 21.6 | > 43.3 | > 43.3 | > 43.3 | no protein synthesis inhibition | > 43.3 | 29 ± 6 | – | – | – | – | – | – | – | – | – | – | – | – |
| CCC1CN2CCc3cc(OC)c(OC)cc3C2CC1CC1NCCc2cc(O)c(OC)cc21 (centres unmarked) [Compound 6] | > 21.6 | > 43.3 | 18.4 ± 3.1 | 0.16 ± 0.05 | – | > 43.3 | – | – | – | – | 9.83 ± 0.5 | – | – | – | – | – | – | – | – |
| C/C=C1\C(=O)C[C@@]2(O)[C@@H]3CCC4=CC(=O)CC[C@]4(C)[C@H]3CC[C@]12C [Compound 14] | > 21.6 | > 43.3 | > 43.3 | > 43.3 | no protein synthesis inhibition | > 43.3 | 17.2 ± 4.5 | – | – | – | – | – | – | – | – | weakest activity | weakest activity | – | – |
| COc1ccc(CC2c3cc(O)c(OC)cc3CCN2C)cc1O (centres unmarked) [Compound 4] | > 23.4 | > 86.8 | 18.3 ± 2.5 | 32.1 ± 3.5 | Partial protein synthesis inhibition | > 46.8 | – | – | – | – | 38 ± 6.1 | – | – | – | – | – | – | – | – |
| COc1ccc2c(c[n+](C)c3c4cc5c(cc4ccc23)OCO5)c1OC [Compound 8, chelerythrine] | 1.96 ± 0.28 | 7.89 | 1.9 ± 0.2 | 0.821 ± 0.22 | no inhibition | 29.8 | 2.77 ± 0.36 | significant cell arrest in G1/G0 | – | – | – | – | – | not viable | not viable | – | – | ~ 20% | ~ 10% |
